Settings: Liquid, Closed cell (Static) method

F/C=C/C(F)(F)F [trans-1,3,3,3-tetrafluoropropene]
Settings	vapor or sublimation pressure [kPa]
280.15 K	276.5
285.18 K	328.2
290.12 K	386
295.11 K	452.1
300.15 K	526.7
305.15 K	609.7
310.34 K	706.3
315.18 K	805
320.1 K	916.6
325.17 K	1043.5
330.13 K	1178.1

Reference: the NIST ThermoML archive (doi:10.1016/j.jct.2017.03.032)
